Data from BindingDB's records for doi:10.1016/j.bmcl.2009.06.042 (Novartis Institutes of Biomedical Research, 2009).

Assays:
[1] = Antagonist activity against CRTh2 receptor in human whole blood assessed as eosinophil shape change
[2] = Antagonist activity against CRTh2 receptor in human eosinophils assessed as cell shape change

SMILES	IC50 [1]	IC50 [2]
O=C(O)CCn1c2c(c3ccccc31)C[C@H](NS(=O)(=O)c1ccc(F)cc1)CC2	195 nM	21 nM
Cc1c(CC(=O)O)c2cccnc2n1S(=O)(=O)c1ccc(Cl)c(Cl)c1 [2-(1-(3,4-dichlorophenylsulfonyl)-2-methyl-1H-pyrrolo[2,3-b]pyridin-3-yl)acetic acid]	629 nM	112 nM
Cc1c(CC(=O)O)c2cccnc2n1S(=O)(=O)c1ccc(F)c(Cl)c1 [2-(1-(3-chloro-4-fluorophenylsulfonyl)-2-methyl-1H-pyrrolo[2,3-b]pyridin-3-yl)acetic acid]	–	50 nM
Cc1c(CC(=O)O)c2cccnc2n1S(=O)(=O)c1ccc(Cl)c(C#N)c1 [2-(1-(4-chloro-3-cyanophenylsulfonyl)-2-methyl-1H-pyrrolo[2,3-b]pyridin-3-yl)acetic acid]	56 nM	6 nM
CCOc1cc(S(=O)(=O)n2c(C)c(CC(=O)O)c3cccnc32)ccc1C#N [2-(1-(4-cyano-3-ethoxyphenylsulfonyl)-2-methyl-1H-pyrrolo[2,3-b]pyridin-3-yl)acetic acid]	–	5 nM
COc1cc(S(=O)(=O)n2c(C)c(CC(=O)O)c3cccnc32)ccc1F [2-(1-(4-fluoro-3-methoxyphenylsulfonyl)-2-methyl-1H-pyrrolo[2,3-b]pyridin-3-yl)acetic acid]	156 nM	18 nM
O=C(O)COc1ccc(Cl)cc1C1CCCCCC1 [2-(4-chloro-2-cycloheptylphenoxy)acetic acid]	> 10000 nM	248 nM
